In patent US11458212B2, “Molecular imaging of cancer cells in vivo” (H. Lee Moffitt Cancer Center and Research Institute, Inc., priority 2011, dated 2022):
“Also recorded” adds a separate entry of the source.

Experiments:
[1] = system: Trp1455/9M-specific CD8 T cells; assay: In vivo cellular immune response assay (immune adjuvant); parameters: species or system B6 mice; conditions: for fluorescence of stained tetramer positive CD8 T cells: day 7; for maximum amount of fluorescently stained tetramer positive CD8 T cells: day 7, peripheral blood, i.v. immunization, n=3
Protocol: To assess the efficacy of T-02 as an immune adjuvant, mice were immunized i.v. with a mixture of 100 μg optimized Trp1455/9M peptide (Guevara-Patino, J. A., et al. J Clin Invest, 2006. 116(5):1382-90), 50 μg anti-CD40 mAb (Clone; FGk-45.5), and 50 μg TLR-2 peptide (T-02, Pam2CSK4, or Pam3CSK4). […] The response of tetramer+ CD8 T cells in the blood was measured on day 7, 21, and 34 by tetramer staining. For tetramer staining, peripheral blood was taken from the submandibular vein and treated briefly with ammonium chloride buffer to lyse red blood cells. Blood cells were stained with FITC-conjugated anti-MHC class II, PerCP Cy5.5-conjugated CD8a (both from eBioscience, San Diego, Calif.), and phycoerythrin-conjugated Trp1455/9M/H-2D^b tetramers (provided by the NIH tetramer Facility, Emory University, Atlanta Ga.) for 40 min in ice. Fluorescence was evaluated using a FACSCalibur™ flow cytometer (BD Biosciences) and analyzed using FlowJo software.
C57BL/6 (B6) mice 6-8 weeks old were purchased from Charles River (Wilmington, Mass.). To assess the efficacy of 10 as an immune adjuvant, B6 mice were immunized i.v. with a mixture (in a volume of 200 μl) of 100 μg optimized Trp1455/9M peptide,[10c] 50 μg anti-CD40 monoclonal antibody (Clone; FGk-45.5), and 50 μg TLR2 agonist (10, Pam2CSK4, or Pam3CSK4). […] The response of tetramer positive CD8 T cells in the blood was measured on day 7, 21 and 34 by tetramer staining. For tetramer staining, peripheral blood was taken from the submandibular vein and treated briefly with ammonium chloride buffer to lyse red blood cells. Blood cells were stained with FITC-conjugated anti-MHC class II, PerCP Cy5.5-conjugated CD8a, and phycoerythrin-conjugated Trp1455/9M/H-2D^b tetramers for 40 min in ice. Fluorescence was evaluated using a FACSCalibur flow cytometer (BD Biosciences) and analyzed using FlowJo software.

parental HEK293 cells = assay: TLR2 functional bioassay in parental HEK293 cells (negative control); assay type: cell-based; conditions: ligand stimulated HEK293 cells
From the text: In Vitro TLR2 Functional Bioassay The in vitro TLR2 functional bioassay was developed and optimized for use in screening soluble compound libraries to identify both TLR2 agonists and antagonists. In this study, the TLR2 functional bioassay was used as a fast high throughput screening to identify TLR2 agonist ligands by measuring the inducing activity of NF-κB. HEK293/hTLR2 cells, highly overexpressing human TLR2, were used along with the parental HEK293, cells as a negative control. […] On day 4 after 24 hrs of peptide stimulation, luciferase induced activity by the induction of NF-κB was measured. […] The luminescence intensity was measured using the standard luminescence protocol on a Victor™ X4 plate-reader equipped with a plate stacker for readout of multiple plates at a time (PerkinElmer, Waltham, Mass.). […] Data were analyzed with GraphPad Prism software and curves were generated with the appropriate nonlinear fit regression analysis.
The in vitro TLR2 functional bioassay was developed and optimized for use in high-throughput screening of soluble compound libraries to identify both TLR2 agonists and antagonists. […] On day 4 after 24 h of peptide stimulation, luciferase induced activity by the induction of NF-κB was measured. […]

SMILES: CCCCCCCCCCCCCCCC(=O)OCC(CSC[C@H](N)C(=O)N[C@@H](CO)C(=O)N[C@@H](CCCCN)C(=O)N[C@@H](CCCCN)C(=O)N[C@@H](CCCCN)C(=O)N[C@@H](CCCCN)C(=O)O)OC(=O)CCCCCCCCCCCCCCC (mixture of isomers) [Pam2CSK4, S-[2,3-bis(palmitoyloxy)-(2RS)-propyl]-[R]-cysteinyl-[S]-seryl-[S]-lysyl-[S]-lysyl-[S]-lysyl-[S]-lysine, reference compound]
- fluorescence of stained tetramer positive CD8 T cells [1]: High fluorescence
- maximum amount of fluorescently stained tetramer positive CD8 T cells [1]: 56.6%
- NF-κB induced luciferase activity in non-expressing TLR2 cell line (parental HEK293 cells): did not exhibit significant NF-κB induced luciferase activity

SMILES: CCCCCCCCCCCCCCCC(=O)N[C@@H](CSCC(COC(=O)CCCCCCCCCCCCCCC)OC(=O)CCCCCCCCCCCCCCC)C(=O)N[C@@H](CO)C(=O)N[C@@H](CCCCN)C(=O)N[C@@H](CCCCN)C(=O)N[C@@H](CCCCN)C(=O)N[C@@H](CCCCN)C(=O)O (mixture of isomers) [Pam3CSK4, N-Palmitoyl-S-[2,3-bis(palmitoyloxy)-(2RS)-propyl]-[R]-cysteinyl-[S]-seryl-[S]-lysyl-[S]-lysyl-[S]-lysyl-[S]-lysine, reference compound]
- fluorescence of stained tetramer positive CD8 T cells [1]: High fluorescence
- maximum amount of fluorescently stained tetramer positive CD8 T cells [1]: 51.7%
- NF-κB induced luciferase activity in non-expressing TLR2 cell line (parental HEK293 cells): did not exhibit any significant NF-κB luciferase activity; also recorded: did not exhibit significant NF-κB induced luciferase activity; also recorded: no measurable luminescence; also recorded: No activity was observed
